According to patent publication US20030191144A1, “Compounds, compositions and methods for modulating beta-amyloid production” (Active Pass Pharmaceuticals, Inc., priority 2001, published 2003):

Assays:
[1] = test system: Aβ42 production and/or release from SM-4 cells; assay: Aβ42 ELISA of culture media from SM-4 cells; format: cell-based; conditions: 16 hrs, p<0.001
Method: Cell Lines and Pharmacological Treatments. 293 EBNA cells (InVitrogen, Carlsbad, Calif.) stably transfected with Swedish mutant β-Amyloid Precursor Protein -695 (SM4 cells) were routinely maintained in DMEM supplemented with sodium pyruvate (1 mM) and 10% fetal bovine serum. Cells were seeded into poly-D-Lysine (SIGMA) coated 6-well plates at a density of 5-7×10^5 cells per well. Subsequently, the cells were rinsed in 1 ml of PBS and treated with 10-500 μM of pirinixic acid in serum-free/phenol red-free DMEM for 16 hours.
(§1) Aβ Detection and Standardization. After the pharmacological treatment, the exposure media was collected and supplemented with 10% sample treatment buffer (40 mM sodium phosphate (pH 7.4), 40 mM triethanolamine, 0.1% Triton X-100, 200 mM NaCl, 2 mM EGTA, 0.1% Sodium azide), and assayed for either Aβ40 or Aβ42 by a calorimetric ELISA as per the manufacturer's protocol (Biosource International Inc, California). The cells were lysed in 0.1% Triton X-100 in PBS supplemented with 5 μM propridium iodide (Molecular Probes, Eugene, Oreg.) and incubated at 37° C. for 30 minutes prior to measuring fluorescence. Aβ40 and Aβ42 were standardized against propridium iodide fluorescence as a measure of total cell number. […]
as §1, with “After” for “Aβ Detection and Standardization. After”
After the pharmacological treatment, the exposure media was collected and supplemented with 10% sample treatment buffer (40 mM sodium phosphate (pH 7.4), 40 mM triethanolamine, 0.1% Triton X-100, 200 mM NaCl, 2 mM EGTA, 0.1% Sodium azide), and assayed for either Aβ40 or Aβ42 by a colorimetric ELISA as per the manufacturer's protocol (Biosource International Inc, California). The cells were lysed in 0.1% Triton X-100 in PBS supplemented with 5 μM propridium iodide (Molecular Probes, Eugene, Oreg.) and incubated at 37° C. for 30 minutes prior to measuring fluorescence. Aβ40 and Aβ42 were standardized against propridium iodide fluorescence as a measure of total cell number.

[2] = test system: Aβ40 production and/or release from SM-4 cells; assay: Aβ40 ELISA of culture media from SM-4 cells; format: cell-based; conditions: 16 hrs
Method: Cell Lines and Pharmacological Treatments. 293 EBNA cells (InVitrogen, Carlsbad, Calif.) stably transfected with Swedish mutant β-Amyloid Precursor Protein -695 (SM4 cells) were routinely maintained in DMEM supplemented with sodium pyruvate (1 mM) and 10% fetal bovine serum. Cells were seeded into poly-D-Lysine (SIGMA) coated 6-well plates at a density of 5-7×10^5 cells per well. Subsequently, the cells were rinsed in 1 ml of PBS and treated with 10-500 μM of pirinixic acid in serum-free/phenol red-free DMEM for 16 hours. Aβ Detection and Standardization. After the pharmacological treatment, the exposure media was collected and supplemented with 10% sample treatment buffer (40 mM sodium phosphate (pH 7.4), 40 mM triethanolamine, 0.1% Triton X-100, 200 mM NaCl, 2 mM EGTA, 0.1% Sodium azide), and assayed for either Aβ40 or Aβ42 by a calorimetric ELISA as per the manufacturer's protocol (Biosource International Inc, California). The cells were lysed in 0.1% Triton X-100 in PBS supplemented with 5 μM propridium iodide (Molecular Probes, Eugene, Oreg.) and incubated at 37° C. for 30 minutes prior to measuring fluorescence. Aβ40 and Aβ42 were standardized against propridium iodide fluorescence as a measure of total cell number. 293 EBNA cells (InVitrogen, Carlsbad, Calif.) stably transfected with Swedish mutant β-Amyloid Precursor Protein -695 (SM4 cells) were routinely maintained in DMEM supplemented with sodium pyruvate (1 mM) and 10% fetal bovine serum. […] The cells were lysed in 0.1% Triton X-100 in PBS supplemented with 5 μM propridium iodide (Molecular Probes, Eugene, Oreg.) and incubated at 37° C. for 30 minutes prior to measuring fluorescence. Aβ40 and Aβ42 were standardized against propridium iodide fluorescence as a measure of total cell number. […] The cells were lysed in 0.1% Triton X-100 in PBS supplemented with 5 μM propridium iodide (Molecular Probes, Eugene, Oreg.) and incubated at 37° C. for 30 minutes prior to measuring fluorescence. Aβ40 and Aβ42 were standardized against propridium iodide fluorescence as a measure of total cell number.

Compound	inhibition of Aβ42 secretion ([1]; 300 μM)	effect on Aβ40 ([2]; 50-300 μM)	inhibition of Aβ42 secretion ([1]; 100 μM)	effect on Aβ40 ([2]; 5-100 μM)
Cc1cccc(N(C)c2cc(Cl)nc(SCC(=O)O)n2)c1C [Compound 1]	66%	without altering Aβ40		
CCN(c1cc(Cl)nc(SCC(=O)O)n1)c1cccc(C)c1C [Compound 2, {4-chloro-6-[(2,3-dimethylphenyl)ethylamino]pyrimidin-2-yl-sulfanyl}acetic Acid]			80%	without altering Aβ40
